Test results: patent US4620871A (priority 1980, dated 1986)
Like-named read-outs stand apart in the source and are kept apart here.

Columns and labels:
Tobacco callus = experiment: Daily growth, cell number and frequency of mitosis of tobacco callus (Example 13); format: cell-based; details: for Cell number/g / Daily growth: 10 ppm active agent, 3 weeks
Experimental: An untreated culture medium served as control. Tobacco callus was grown on the treated and untreated culture media (incubation period: 3 weeks), and the daily growth, the increase in cell number and the frequency of mitosis were measured according to the method of Skoog.

leaves of Pinto bean [1] = experiment: Protein synthesis, glycine-2-14C incorporation in Pinto bean leaves (Example 19); details: 18 hours, zeatin 20 ppm, kinetin/benzyladenine 30 ppm, others 200 ppm
Experimental: The tests were performed on leaves of Pinto bean. The leaf segments were treated with an endogeneous cytokinin (zeatin), synthetic cytokinins (kinetin, benzyladenine) or with the compositions according to the invention, respectively, by floating the leaf segments on the solution of the test substance for 18 hours. Thereafter the leaf segments were exposed to a labelled amino acid (glycine-2-^14 C) for 3 hours, and the incorporation of the amino acid was determined by radiometry.

leaves of Pinto beans = experiment: Stimulation of carbon dioxide fixation, Pinto beans (Example 21); details: zeatin 20, kinetin/benzyladenine 30, others 200 ppm; for Radioactivity A: A = in the light, control 2.14; for Radioactivity B: B = in the dark, control 0.18; for Radioactivity C: C = photosynthetic, control 2.32
Experimental: The tests were performed on leaves of Pinto beans. The leaf segments were treated with an endogeneous cytokinin (zeatin), synthetic cytokinins (kinetin, benzyladenine) or with the compositions according to the invention, respectively, by floating the leaf segments on the solution of the test substance for 18 hours, thereafter the leaf segments were exposed to labelled carbon dioxide (activity: 100 μCi/5000 ml of ^14 CO2) for 0.5 hours.

green parts of maize = experiment: Stimulation of plant photolysis, HTO, maize (Example 22); details: 2 hours; for Radioactivity: 500 ppm, control 4.64
Experimental: The compositions according to the invention were diluted with distilled water to an active agent content of 500 ppm, and green parts of maize, weighing 200 mg, were treated with the resulting solutions for 2 hours. Thereafter the treated green plant parts were treated for one hour with 10 μCi/50 ml HTO, then the plant parts were frozen with liquid nitorgen, triturated, subjected to chromatographic separation, and the radioactivity of the isolated glycerol aldehyde was determined.
In the control test the green parts of maize were treated with distilled water only.

leaves of Pinto bean [2] = experiment: Stimulation of photolytic activity, HTO, Pinto bean (Example 23); details: 18 hours, zeatin 20, kinetin/benzyladenine 30, others 200 ppm; for Photolytic activity: control 7.64
Experimental: The stimulating effects of an endogeneous cytokinin (zeatin), synthetic cytokinins (kinetin, benzyladenine) and the cytokinin-like regulators according to the invention exerted on the photolytic activity connected to the decomposition of HTO were examined on leaves of Pinto bean. The leaf discs were floated for 18 hours on solutions of the substances under examination, and then exposed to a radioactivity of 200 μCi/100 ml for one hour to effect photolysis of HTO.

Pea = experiment: Stimulation of nutrient uptake, labelled phosphate, pea (Example 24); details: for labelled phosphate in nucleic acid fraction: 200 ppm, control 23.3
Experimental: The compositions according to the invention were diluted with distilled water to an active agent concentration of 200 ppm, and leaf segments of wheat, maize and pea, weighing 200 mg each, were treated with the solutions. Thereafter the treated green leaf segments were treated for 0.5 hours with a solution of labelled phosphate ions (radioactivity: 30 μCi/50 ml). After this exposition period the treated leaf segments and the untreated controls were processed in a manner known per se to isolate the nucleic acid fractions, and the isolated nucleic acid fractions were dissolved in 6 n ammonium hydroxide solution. Stock solutions were prepared from the resulting solutions, and the amount of labelled phosphate ions present in the stock solutions were measured by liquid scintillation.

Pinto bean = experiment: Stimulation of membrane activity (nitrate uptake), Pinto bean (Example 25); format: in vivo; details: for Protein nitrogen / Total nitrogen: 2 weeks; for Protein nitrogen / Total nitrogen / Protein nitrogen, stimulation / Protein nitrogen content in % of the total nitrogen content: zeatin 20, kinetin/benzyladenine 30, others 200 ppm; for Protein nitrogen: control 2.4; for Total nitrogen: control 3.8; for Total nitrogen, stimulation: 200 ppm; for Protein nitrogen content in % of the total nitrogen content: control 63
Experimental: The tests were performed on Pinto bean. The plants were treated with solutions of an endogeneous cytokinin (zeatin), synthetic cytokinins and membraneactive regulators according to the invention, respectively, and the leaves of the plants were analyzed 2 weeks after the treatment.

Soybean = experiment: Grain yield of soybean (Example 30); format: in vivo; details: 3 x 2 kg/ha; for Grain yield: control 29.53
Experimental: Soybean cultures were sprayed three times with the compositions according to the invention. The active agents were applied in a dosis of 2 kg/ha, in all of the treatments. The stand was sprayed first at the beginning of flowering, then at the flowering of the apical cluster, and finally two weeks after the second treatment.
The grain yield of soybean, harvested from the treated and control parcels, was measured.

Libelulla wheat variety = experiment: Grain yield of Libelulla wheat (Example 31); format: in vivo; details: for Weight of grains, increase: in vivo; for Weight of grains collected from 100 ears: seed 2 kg/ha + soil 2 kg/ha, control 215.79
Experimental: (§1) Two wheat varieties, Libelulla and Mexican 226 K, were utilized in the tests performed under large-parcel field conditions. The sowing seeds were coated with the compositions of the invention according to the wet powder seed dressing technique; a dosis of 2 kg/ha was applied.
(§2) The soil was also treated with the compositions according to the invention directly before sowing. A dose of 2 kg/ha was applied.
(§3) The grain yields of the wheat varieties, harvested from the treated and control parcels, were measured, and the total nitrogen content and protein nitrogen content of the grains were determined.

[3] = tested on: Mexican 226 K wheat variety; experiment: Nitrogen contents of grains of Mexican 226 K wheat (Example 31); format: in vivo; details: for Protein nitrogen content: control 1.61; for Total nitrogen content: seed 2 kg/ha + soil 2 kg/ha, control 2.12
Experimental: as §1, §2, §3

sugar beet = experiment: Crop yield and sugar content of sugar beet (Example 32); format: in vivo; details: for Crop yield: 1 kg/ha seed + 2 x 2 kg/ha, control 541; for Sugar content: after harvesting, control 16.0; for Sugar yield: control 87.56; for Sugar yield, increase: in vivo
Experimental: Glomeruli of sugar beet were treated with the compositions according to the invention (a dose corresponding to 1 kg/ha was applied), and the glomeruli were sown into large parcels. The plants emerged were sprayed twice with the compositions according to the invention, applying a dose of 2 kg/ha, each.
The sugar contents of the plants grown on the treated and control parcels were examined in August.
The crop yield and the sugar content were also determined after harvesting.

[4] = tested on: Egri leanyka vine variety; experiment: Berry yield and sugar content of vine, Egri leanyka (Example 33); format: in vivo; details: for Berry yield: 3 x 2 kg/ha, control 151.15; for Sugar content: control 16.7; for Sugar yield: control 18.93
Experimental: Vine stands were sprayed with the compositions according to the invention to examine their effects exerted on the berry yield and sugar content. The compositions, diluted with water, were sprayed three times onto the plants. The first treatment was performed prior to flowering, the second one three weeks later, and the third one six weeks after the first one. The dose applied was 2 kg/ha in each of the treatments.
Comparative tests were also performed with commonly used growth regulating compositions, i.e. CCC (chlorocholine chloride), Ethrel (or Etefon; 2-chloroethylphosphonic acid) and Nevirol (N-phenyl-phthalaiminic acid). The results were compared to those observed with the untreated controls.
Two vine varieties, Pannonia and Egri leanyka, were involved in the tests.

Structure (SMILES)	Cell number/g (Tobacco callus)	Daily growth (Tobacco callus) [mg]	Stimulation (leaves of Pinto bean [1]) [%]	Radioactivity A (leaves of Pinto beans) [dpm/200 mg fresh weight]	Radioactivity B (leaves of Pinto beans) [dpm/200 mg fresh weight]	Radioactivity C (leaves of Pinto beans) [dpm/200 mg fresh weight]	Stimulation (leaves of Pinto beans) [%]	Radioactivity (green parts of maize) [dpm/mg dry weight]	Stimulation (leaves of Pinto bean [2]) [%]	Photolytic activity (leaves of Pinto bean [2])	labelled phosphate in nucleic acid fraction (Pea)	Protein nitrogen (Pinto bean)	Total nitrogen (Pinto bean)	Total nitrogen, stimulation (Pinto bean) [%]	Protein nitrogen, stimulation (Pinto bean) [%]	Protein nitrogen content in % of the total nitrogen content (Pinto bean) [%]	Grain yield, increase (Soybean) [%]	Grain yield (Soybean) [q/ha]	Weight of grains, increase (Libelulla wheat variety) [%]	Weight of grains collected from 100 ears (Libelulla wheat variety) [g]	further results
N=C(N)N.N=C(N)N.Oc1nnc(O)c2ccccc12 [1,4-dihydroxyphthalazine diguanidine salt]	266.0 10^4 units	19.3	39.0	3.38	0.31	3.69	59.3	11.42	79	13.72 dpm/mg of glucose	38.4 1000 cpm/g	4.1 % of dry weight	4.8 % of dry weight	26.3	70.8	85	39	41.22	7	232.35	activity at 10 ppm (Tobacco callus; Nicotiana tabacum, 504 h, 10 ppm, untreated control = 100): 117%; activation at 500 ppm (green parts of maize; Zea mays): 146%; activation at 200 ppm (Pea): 51.7%; Protein nitrogen content, stimulation [3]: 28.5%; Total nitrogen content, stimulation [3]: 5.6%; Protein nitrogen content [3]: 2.07 % of dry substance; Total nitrogen content [3]: 2.81 % of dry substance; Crop yield (sugar beet): 608 q/ha; Sugar content (sugar beet): 16.45%; Sugar yield (sugar beet): 100.01 q/ha; Sugar yield, increase (sugar beet): 14%; Berry yield [4]: 124.23 q/ha; Sugar content [4]: 16.8%; Sugar yield [4]: 15.65 q/ha
CCC[n+]1c[nH]c2ccccc21.[Br-] [N--(n-Propyl)-benzimidazolium bromide, N-(n-propyl)-benzimidazolium bromide]	327.5 10^4 units	22.8	42.7	3.92	0.34	4.26	84.0	8.76	84	14.08 dpm/mg of glucose	32.7 1000 cpm/g	4.4 % of dry weight	5.3 % of dry weight	39.4	83.3	83	30	38.67	65	357.73	Radioactivity of the TCA-insoluble fraction (leaves of Pinto bean [1]; control 3.17): 4.52 1000 dpm/200 mg fresh weight; Protein nitrogen content, stimulation [3]: 8.0%; Total nitrogen content, stimulation [3]: 1.0%; Protein nitrogen content [3]: 1.74 % of dry substance; Total nitrogen content [3]: 2.15 % of dry substance; Crop yield (sugar beet): 877 q/ha; Sugar content (sugar beet): 17.05%; Sugar yield (sugar beet): 149.49 q/ha; Sugar yield, increase (sugar beet): 70%; Berry yield, increase [4]: 17.0%; Sugar yield, increase [4]: 17.0%; influence on sugar content, in words [4]: did not influence the sugar content; Berry yield [4]: 176.92 q/ha; Sugar content [4]: 16.7%; Sugar yield [4]: 22.16 q/ha; Berry yield, increase ([4]; listed as N-(n-propyl)-benzimidazolium bromide): 17%
